Test results taken from patent US4254111A, “Sterolin products” (Roecar Holdings (Netherlands Antilles) NV, priority 1978, dated 1981).
Values after ≈ are worked out from the molar mass of the structure shown.

Key:
[1] = test system: rat paw-oedema / inflammation (Brewer's Yeast); assay: Anti-inflammatory effect, Brewer's Yeast rat paw oedema, intraperitoneal administration; type: in vivo, male Sprague-Dawley rats
Method: (§1) Ten animals were killed 5 hours after the challenge in order to determine the effect of the test substance on the accute inflammatory process. The remaining members of the group were sacrificed after 24 hours and used to assess the effect of the test compound on the secondary, residual inflammatory action of yeast. The average amount of oedema and swelling produced in the right foot by yeast was obtained by subtracting the weight of the foot from the weight obtained of the control (saline) side.
Groups of 20 male Sprague-Dawley rats, weighing 250 (±10 g) were acclimatized to the test environment. The test compound was made up in physiological saline at concentrations allowing the selected dose to be administered intraperitoneally at the rate of 0.1 ml/100 g body weight.
The test agent was administered 1.0 hour before the challenge with Brewer's Yeast. Otherwise the test procedure described under (a) was followed.

Water solubility = type: physicochemical; conditions: for Solubility in g per l water at 25° C, white gel / thick syrup / solubility: water
Method: It is primarily for the purpose of providing water solubility to the steryl monosaccharides that the compounds of this invention, the dicarboxylic acid half ester derivatives and their salts, were prepared.
A solution of succinic anhydride (8.6 g, 0.086 mole) and anhydrous sitosteryl β-D-glucoside (24.7 g, 0.043 mole) in anhydrous pyridine (90 ml) was refluxed for 30 minutes and then left to stand for 20 hrs before it was poured into vigorously stirred conc. hydrochloric acid (104 ml) at ice temperature. The mixture was allowed to stand for 2 hrs before the precipitated hemiester was gravity filtered. The collected solid, washed with iced water until the washings were neutral, was dried in a vacuum oven and a small sample of this was dried to constant weight for a C and H analysis.
The standard preparation of the sterolin dicarboxylic acid hemiester salts illustrated by the preparation of the disodium salt of sitosteryl β-D-glucoside dihemisuccinate. The wet sitosteryl β-D-glucoside dihemisuccinate washed clear of hydrochloric acid as described in Example 1 was transferred quantitatively into a sodium bicarbonate solution (200 ml water; 7.2 g or 0.086 mole NaHCO3). This mixture cooled to 0° C. was slowly poured with vigorous stirring into ice cold acetone (2000 ml) and the white precipitate of the salt was allowed to settle over 18 hrs in an ice chest before it was filtered under suction. The moist salt was thoroughly stirred into ice cold acetone (200 ml), the slurry suction filtered and the filter cake washed with cold ether before the product was dried in a vacuum oven at 40° C. for 48 hrs followed by 2×1 minute heating in a microoven.

[2] = in vivo, ip
[3] = test system: rat paw-oedema / inflammation (Brewer's Yeast); assay: Anti-inflammatory effect, Brewer's Yeast rat paw oedema, oral administration; type: in vivo, male Sprague-Dawley rats
Method: Twenty male Sprague-Dawley rats, (original supplier: Blue Spruce; Altamont U.S.A.) weighing 240-260 g, were acclimatized for at least 10 days to the test environment.
(§2) The test substance was suspended in a 1% m/v Tylose® solution made up with distilled water. The selected test doses of the compounds were administered by force feeding at the rate of 1.0 ml/100 g body weight 24.0 hrs and 1.0 hour before the intra-plantar administration of the phlogegenic agent. Brewer's Yeast served as the inflammation-inducing substance and was injected at the rate of 0.1 ml of a 2% suspension made up in sterile saline into the right hind paw. (The left hind paw was injected with 0.1 ml saline only and served as the control foot.)
as §1, with “side. The results obtained from the treated groups were compared to the relevant control groups which received a similar volume of the aqueous Tylose®-solution only and the difference was expressed as a percentage increase or decrease over the control value.” for “side.”

[4] = Acute toxicity after a single oral or parenteral dose; type: in vivo, male Sprague-Dawley rats; conditions: intraperitoneal, after 7 days
Method: as §2
Male rats of Sprague-Dawley strain and with a weight of 250-350 g were injected intraperitoneally with 0.1-0.5 ml/100 g body weight of an aqueous solution or suspension. Oral administration was carried out as described under (a). Examination of the acute toxicity was carried out after 7 days.

[5] = Oral toxicity studies in primates (acute and prolonged daily dosing); type: in vivo
Method: (§3) Preferred daily doses of the compounds of this invention depend on the purpose for which they are used, administered or applied and also whether they are given by oral or parenteral routes or applied topically. […] They may be toxic when administered in large amounts and therefore the oral route is preferred. […] If taken for prophylactic purposes by healthy individuals a daily dose of 0.01-0.1 mg is adequate, although this may be raised to 0.2-1 mg for elderly people. Depending on the severity of a degenerative disease daily doses of 0.3-44 mg may be used for initial treatment until on improvement of the particular condition, a maintenance dose of 0.03-0.6 mg per day is advisable. Lower daily doses are required when these compounds are administered parenterally (e.g. via an intravenous drip). It should be noted that with respect to animals a preferred dose is difficult to predict since it is known that marked differences exist between species and even various breeds or strains of animals in their ability to utilise or react to steroidal glycosides (44-46).

[6] = Oral toxicity studies in rats (acute and prolonged daily dosing); type: in vivo
Method: as §3

disodium salt of sitosteryl β-D-glucoside dihemisuccinate [S.G. dihemisuccinate Na2 salt]
Average percentage reduction of rat paw-oedema / inflammation ([1]; single dose 25 mg/kg 1 hour before challenge, after 5 hours): 27% | Average percentage reduction of rat paw-oedema / inflammation ([1]; single dose 25 mg/kg 1 hour before challenge, after 24 hours): 14% | Average percentage reduction of rat paw-oedema / inflammation ([1]; single dose 50 mg/kg 1 hour before challenge, after 5 hours): 47% | Average percentage reduction of rat paw-oedema / inflammation ([1]; single dose 50 mg/kg 1 hour before challenge, after 24 hours): 35% | Solubility in g per l water at 25° C, white gel / thick syrup (Water solubility): 5×10^2 g per l | solubility (Water solubility): 2e+06 µg/mL | Adverse effects and tissue toxicity [2]: fewer adverse effects coupled with a lower tissue toxicity | Average percentage reduction of rat paw-oedema / inflammation ([3]; 500 mg/kg given 24,0 and 1,0 hour before challenge, after 5 hours): 8,5% | Average percentage reduction of rat paw-oedema / inflammation ([3]; 500 mg/kg given 24,0 and 1,0 hour before challenge, after 24 hours): 10,7% | Average percentage reduction of rat paw-oedema / inflammation ([3]; 1000 mg/kg given 24,0 and 1,0 hour before challenge, after 5 hours): 14,5% | Average percentage reduction of rat paw-oedema / inflammation ([3]; 1000 mg/kg given 24,0 and 1,0 hour before challenge, after 24 hours): 18,5%

CC[C@H](CC[C@@H](C)[C@H]1CC[C@H]2[C@@H]3CC=C4C[C@@H](O[C@@H]5O[C@H](CO)[C@@H](O[C@H]6O[C@H](CO)[C@@H](O)[C@H](O)[C@H]6O)[C@H](O)[C@H]5O)CC[C@]4(C)[C@H]3CC[C@]12C)C(C)C [S.M., sitosteryl β-D-maltoside, reference compound]
solubility (Water solubility): 380 µg/mL (≈ 514 µM)

CCC(CCC(C)C1CCC2C3CC=C4CC(OC5OC(COC(=O)CCC(=O)O)C(OC(=O)CCC(=O)O)C(OC(=O)CCC(=O)O)C5OC(=O)CCC(=O)O)CCC4(C)C3CCC12C)C(C)C (stereo not drawn) [S.G. tetrahemisuccinate]
Reduction of the inflammatory response in the rat-paw oedema trials in % ([1]; (50) mg/kg body weight, TABLE 2, time not given): -46.3% | Acute toxicity after a single dose (% at dose) ([4]; 100 mg/kg): 20% | Acute toxicity after a single dose (% at dose) ([4]; 200 mg/kg): 100%

CC[C@H](CC[C@@H](C)[C@H]1CC[C@H]2[C@@H]3CC=C4C[C@@H](O[C@@H]5O[C@H](CO)[C@@H](O)[C@H](O)[C@H]5O)CC[C@]4(C)[C@H]3CC[C@]12C)C(C)C [S.G., sitosteryl β-D-glucoside, reference compound]
solubility (Water solubility): 9 µg/mL (≈ 15.6 µM)

sitosteryl β-D-glucoside dihemisuccinate [S.G. dihemisuccinate]
Acute toxicity after a single dose (% at dose) ([4]; 100 mg/kg): 25% | Solubility (state or result in words) (Water solubility): colloidal | Solubility in g per l water at 25° C, white gel / thick syrup (Water solubility): 5×10^2 g per l | solubility (Water solubility): 1,25×10^3 g/l | Tolerance of prolonged daily doses ([5]; in vivo): well tolerated | Acute toxicity studies, toxic effects ([5]; primates, oral, even in excess of 1000-2000 mg/kg): no toxic effects | Tolerance of prolonged daily doses ([6]; rat, in vivo): well tolerated | Acute toxicity studies, toxic effects ([6]; rats, oral, even in excess of 1000-2000 mg/kg): no toxic effects
